Data published in patent US12600732B2, “Bifunctional compounds for degrading BTK via ubiquitin proteosome pathway” (NURIX THERAPEUTICS, INC., priority 2019, dated 2026).
Like-named read-outs stand apart in the source and are kept apart here.

Columns and labels:
primary human T cells [1] = test: T cell activation assay, CD25 and CD69 staining (flow cytometry); type: cell-based; settings: for CD25 Staining Anti-CD3/Anti-CD28 Stimulation / CD69 Staining Anti-CD3/Anti-CD28 Stimulation: fold-change of response relative to baseline
Description: (§1) This example evaluates whether CTMs with IMiD activity affect T cell activation. […] These assays were performed to assess whether BTK CTMs with and without IMiD activity affected activation of primary human T cells after stimulation of the T cell receptor with anti-CD3/ati-CD28 stimulation. T cell activation was measured by IL-2 secretion (ELISA assay) and upregulation of activation markers CD25 and CD69 on the surface of T cells (flow cytometry). Data are presented as the fold-change of response relative to baseline (stimulation with anti-CD3/anti-CD28 stimulation in the absence of compound).

Ikaros = molecular target: T1, Ikaros (Homo sapiens, UniProt Q13422+Q96SW2); test: Ikaros degradation in Mantle Cell Lymphoma lines (flow cytometry); type: cell-based; settings: treatment time 24 h
T1 construct: endogenous in cells; host or cells: Mino, Rec-1
Description: (§2) Ikaros and Aiolos Degradation in Mantle Cell Lymphoma Lines (Ikaros and Aiolos Flow Cytometry)
(§3) This example evaluates the IMiD activity of CTMs in cellular models of Mantle Cell Lymphoma (MCL). […] These assays are to determine potency of CTMs for degrading IMiD neo-substrates in cellular models of MCL and to generate data to inform efficacy studies in MCL xenografts.

Aiolos = molecular target: T2, Aiolos (Homo sapiens, UniProt Q96SW2+Q9UKT9); test: Aiolos degradation in Mantle Cell Lymphoma lines (flow cytometry); type: cell-based; settings: treatment time 24 h
T2 construct: endogenous in cells; host or cells: Mino, Rec-1
Description: as §2, §3

primary human T cells [2] = test: T cell activation assay, IL-2 secretion (ELISA); type: cell-based
Description: as §1

BTK C481S = BTK C481S (Homo sapiens, UniProt Q06187, C481S); test: BTK degradation (Total BTK HTRF) in TMD8 cells expressing BTK-C481S; type: cell-based; set-up: endogenous in cells; host or cells: TMD8 BTK-C481S (clone2C3), Cas9 RNP knock-in; settings: TMD8 BTK-C481S (clone2C3) cells, treatment time 4 h
Description: BTK levels were determined using Cisbio Total-BTK HTRF (Homologous Time-Resolved Fluorescence) kit (63ADK064PEG) according to the manufacturer's protocol. Briefly, cells were incubated in 1× supplied lysis buffer for 30 minutes. In an opaque white low volume 96-well plate (Cisbio, 66PL96005), cell lysate was combined with two different specific BTK antibodies, one conjugated with Eu^3+-Cryptate FRET donor and one conjugated with d2 FRET acceptor. Assay controls include wells containing cell lysate with only the Eu^3+-Cryptate FRET donor antibody and wells containing both HTRF antibodies and lysis buffer without cells or control lysate provided by Cisbio. HTRF ratio was calculated as (acceptor signal at 665 nm/donor signal at 620 nm)×10^4. Background HTRF levels were determined from the control well containing the donor, but no acceptor, antibody. Background HTRF levels were subtracted from all samples. Readouts were reported as HTRF levels relative to HTRF levels of DMSO-treated cells. Four-parameter non-linear regressions were performed in GraphPad Prism 7.02 to obtain DC50 values.
BTK Degradation (Total BTK HTRF) at Four Hours in TMD8 Cells Expressing BTK-C481S
This example evaluates the potency of CTM in degrading […]. The BTK binding moieties utilized in CTMs bind to the BTK active site. This example evaluates whether the active site mutation C481S affects CTM-induced degradation of BTK.

TMD8 C481S cells = test: Cell viability assay (CellTiter-Glo), TMD8 C481S cells; settings: for EC50: Homo sapiens, TMD8, 72 h; for EMAX (% viable cells): TMD8 C481S cells, treatment time 72 h
Description: Cell viability was determined using CellTiter-Glo 2.0 Luminescent Cell Viability Assay (Promega, G9242), which quantitates the amount of ATP present as a proxy for the number of viable cells in culture. Cells were plated with densities between 2000-4000 cells per well in 96-well plates. […] CellTiter-Glo reagent was added to cells at a dilution of 1:20, and the plate was incubated ten minutes at room temperature prior to reading the luminescence signal using an EnVision plate reader. Controls included cells treated with DMSO and wells that contained no cells, only media. Background luminescence signal was determined by control wells containing no cells, only media, and was then subtracted from all sample wells. Luminescence values were then normalized to DMSO-treated wells and reported at proportion viable cells.

TMD8 cells = test: Cell viability assay (CellTiter-Glo), TMD8 cells; settings: for EC50: Homo sapiens, TMD8, 72 h; for EMAX (% viable cells): TMD8 cells, treatment time 72 h
BTK = molecular target: T3, BTK (Mus musculus, UniProt P35991); test: In vivo degradation of BTK in mouse PD experiments with oral dosing; settings: 24 h
T3 construct: from tissue; host or cells: mouse blood B cells / splenocytes (CD-1 or BALB/c)
Summary of the method: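 BTK in blood or splenocytes read by flow cytometry (or HTRF), degradation taken as B-cell minus T-cell BTK MFI versus vehicle. Mice (CD-1 or BALB/c) received compound orally, initially 90 mg/kg for 6 h, then lower doses and longer time points.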

[3] = test system: B cell receptor (BCR) signaling; test: B cell activation assay (flow cytometry), mouse B cells; type: cell-based; settings: treatment 4 h, IgM stimulation 18 h
Description: Compound was present throughout the stimulation. Cells were stained with Live/Dead dye (Fisher L34976) and then fluorophore-conjugated antibodies against CD20 (Biolegend 302330), CD3 (BD Pharmingen 557705), CD86 (Biolegend 305416) and CD69 (Biolegend 310906). Stained cells were fixed in PFA and run on an Attune N×T Acoustic Focusing Flow Cytometer (Thermo-Fisher A29004), and data was analyzed using FlowJo (v10.5.3) and GraphPad Prism (v7.00) software. Single live lymphocytes were gated for B cells (CD20+CD3−) and T cells (CD3+CD20−), and the geometric mean fluorescence intensity (MFI) of CD86 and CD69 was calculated for each population. The MFI of the unstimulated sample was used to quantify baseline activation.
This example evaluates whether CTM treatment affects B cell receptor (BCR) signaling. BTK is activated downstream of the B cell receptor and leads to upregulation of activation markers CD86 and CD69 on the surface of B cells.

[4] = PK data for BTK CTMs (in vivo plasma concentrations); settings: Mouse Balb/c
Description: The present example evaluates in vivo plasma concentrations of BTK CTMs to develop PK-PD-efficacy relationship and predict human exposure.

[5] = oral dose 30 mg/kg, splenocytes, HTRF

With `CN1CCN([C@@H]2CCCN(c3cnc(C(N)=O)c(Nc4ccc(C5CCN(C(=O)CCOCCNc6cccc7c6C(=O)N(C6CCC(=O)NC6=O)C7=O)CC5)cc4)n3)C2)C1=O` (some centres unmarked) [Compound 25] as the compound, how does the “CD25 Staining Anti-CD3/Anti-CD28 Stimulation” value (primary human T cells [1]; 1.4 nM) read?
Its value is 1.25.

What about the “CD69 Staining Anti-CD3/Anti-CD28 Stimulation” value (primary human T cells [1]; 1.4 nM) of the same compound?
The value was 1.18.

And the “CD25 Staining Anti-CD3/Anti-CD28 Stimulation” value (primary human T cells [1]; 37 nM)?
The value was 1.30.

What about the “CD69 Staining Anti-CD3/Anti-CD28 Stimulation” value (primary human T cells [1]; 37 nM) of the same compound?
Its value is 1.33.

What about the “CD25 Staining Anti-CD3/Anti-CD28 Stimulation” value (primary human T cells [1]; 333 nM) of the same compound?
Its value is 1.39.

What about the “CD69 Staining Anti-CD3/Anti-CD28 Stimulation” value (primary human T cells [1]; 333 nM) of the same compound?
The value was 1.39.

What about the “expression of CD25 and CD69 compared to baseline (anti-CD3/anti-CD28 stimulation alone)” value (primary human T cells [1]; primary human T cells) of the same compound?
Its value is “unchanged or decreased levels”.

And the DC50 (Ikaros; Mino cells)?
The DC50 was 29 nM.

What about the DC50 (Ikaros; Rec-1 cells) of the same compound?
Its DC50 is 63 nM.

What about the DC50 (Aiolos; Mino cells) of the same compound?
Its DC50 is 10 nM.

What about the DC50 (Aiolos; Rec-1 cells) of the same compound?
Its DC50 is 31 nM.

And the “IL-2 Secretion Anti-CD3/Anti-CD28 Stimulation” value (primary human T cells [2]; 1.4 nM, fold-change of response relative to baseline)?
The value was 2.42.

And the “IL-2 Secretion Anti-CD3/Anti-CD28 Stimulation” value (primary human T cells [2]; 37 nM, fold-change of response relative to baseline)?
Its value is 3.35.

What about the “IL-2 Secretion Anti-CD3/Anti-CD28 Stimulation” value (primary human T cells [2]; 333 nM, fold-change of response relative to baseline (stimulation without compound)) of the same compound?
Its value is 3.86.

And the “IL-2 secretion compared to baseline (anti-CD3/anti-CD28 stimulation alone)” value (primary human T cells [2]; primary human T cells)?
Its value is “increased IL-2 secretion but not to the level observed with IMiDs”.

Which results are given for `CN1CCN([C@@H]2CCCN(c3cnc(C(N)=O)c(Nc4ccc(C5CCN(C6CN(Cc7ccc8c(c7)C(=O)N(C7CCC(=O)NC7=O)C8=O)C6)CC5)cc4)n3)C2)C1=O` (some centres unmarked) [Compound 101]?
DC50 (BTK C481S): 4.3 nM; EC50 (TMD8 C481S cells): 431 nM; EMAX (% viable cells) (TMD8 C481S cells): 27%; EC50 (TMD8 cells): 93.4 nM; EMAX (% viable cells) (TMD8 cells): 27%

With `CN1CCN([C@@H]2CCCN(c3cnc(C(N)=O)c(Nc4ccc(C5CCN(CC6CCN(c7ccc8c(c7)n(C)c(=O)n8C7CCC(=O)NC7=O)CC6)CC5)cc4)n3)C2)C1=O` (some centres unmarked) [Compound 156] as the compound, how does the DC50 (BTK C481S) read?
The DC50 was 0.4 nM.

With `CN1CCN([C@@H]2CCCN(c3cnc(C(N)=O)c(Nc4ccc(C5(C)CCN(C[C@H]6CCN(c7ccc8c(c7)C(=O)N(C7CCC(=O)NC7=O)C8=O)C6)CC5)cc4)n3)C2)C1=O` (some centres unmarked) [Compound 71] as the compound, how does the “% BTK Remaining” value (BTK; [5]) read?
The value was 27%.

What about the EC50 ([3]; read-out: CD69 EC50) of the same compound?
The EC50 was 1 nM.

And the EC50 ([3]; read-out: CD86 EC50)?
Its EC50 is 2 nM.

For `NC(=O)c1ncc(N2CCCCC2)nc1Nc1ccc(C2CCN(CC3CCN(c4ccc(C(=O)NC5CCC(=O)NC5=O)nc4)CC3)CC2)cc1` (centres unmarked) [Compound 182], which DC50 (BTK C481S) is on record?
Its DC50 is 14.5 nM.

And the “% BTK Remaining” value (BTK; [5])?
Its value is 12%.

Which AUC ([4]; 1 mg/kg IV) does the source give for `CN1CCN([C@@H]2CCCN(c3cnc(C(N)=O)c(Nc4ccc(C5CN(CC6CCN(c7ccc8c(=O)n(C9CCC(=O)NC9=O)ccc8c7)CC6)C5)cc4)n3)C2)C1=O` (some centres unmarked) [Compound 69] here?
Its AUC is 0.68 µM·h.

What about the clearance ([4]; 1 mg/kg IV) of the same compound?
The clearance was 31.4 mL/min/kg.

And the Vd ([4]; 1 mg/kg IV, read-out: Volume of Distribution)?
The Vd was 2.2 L/kg.

What about the AUC ([4]; 10 mg/kg PO) of the same compound?
The AUC was 0.078 µM·h.

And the bioavailability ([4]; 10 mg/kg PO)?
Its bioavailability is 1%.

What about the DC50 (BTK C481S) of the same compound?
The DC50 was 0.8 nM.

What about the “% BTK Remaining” value (BTK; oral dose 0.3 mg/kg, blood, flow cytometry) of the same compound?
Its value is 112%.

And the “% BTK Remaining” value (BTK; oral dose 3 mg/kg, blood, flow cytometry)?
The value was 43%.

And the “% BTK Remaining” value (BTK; oral dose 30 mg/kg, blood, flow cytometry)?
Its value is 30%.

What about the “% BTK Remaining” value (BTK; [5]) of the same compound?
The value was 33%.

What about the EC50 ([3]; read-out: CD69 EC50) of the same compound?
The EC50 was 0.1 nM.

And the EC50 ([3]; read-out: CD86 EC50)?
The EC50 was 0.3 nM.

For `O=C(c1ccc(Oc2ccccc2)cc1Cl)c1c[nH]c2ncnc(N[C@@H]3CC[C@@H](CO)OC3)c12` [ARQ531], which EC50 (TMD8 C481S cells) is on record?
Its EC50 is 100 nM.

What about the “EMAX (% viable cells)” value (TMD8 C481S cells) of the same compound?
Its value is 17%.

And the EC50 ([3]; read-out: CD69 EC50)?
The EC50 was 50 nM.

What about the EC50 ([3]; read-out: CD86 EC50) of the same compound?
The EC50 was 70 nM.

And the EC50 (TMD8 cells)?
Its EC50 is 100 nM.

And the “EMAX (% viable cells)” value (TMD8 cells)?
Its value is 16%.
